Test results reported in ChEMBL document CHEMBL5154767, “Discovery of dual-target ligands binding to beta2-adrenoceptor and cysteinyl-leukotriene receptor for the potential treatment of asthma from natural products derived DNA-encoded library” (Eur J Med Chem, 2022).
Active and inactive are the calls of the source. The calls are words filed in the database; no cut-off is given here.

Key:
[1] = test system: Mus musculus; assay: Anti-asthmatic activity against ovalbumin-induced asthmatic mouse model assessed as infiltration of inflammatory cells in the perivascular and peribronchiolar region of lungs at 20 mg/kg, po administered once daily for 7 days by H and E staining based light microscopic analysis; format: functional, organism-based; settings: time 7.0 day
[2] = test system: Mus musculus; assay: Anti-asthmatic activity against ovalbumin-induced asthmatic mouse model assessed as infiltration of inflammatory cells in the perivascular and peribronchiolar region of lungs at 2.6 mg/kg, po administered once daily for 7 days by H and E staining based light microscopic analysis; format: functional, organism-based; settings: time 7.0 day
[3] = test system: Mus musculus; assay: Anti-asthmatic activity against ovalbumin-induced asthmatic mouse model assessed as decrease in IgE level in serum at 2.6 mg/kg, po administered once daily for 7 days by ELISA; format: functional, organism-based; settings: time 7.0 day
[4] = test system: Mus musculus; assay: Anti-asthmatic activity against ovalbumin-induced asthmatic mouse model assessed as decrease in IL-4 level in BALF at 2.6 mg/kg, po administered once daily for 7 days by ELISA; format: functional, organism-based; settings: time 7.0 day
[5] = test system: Mus musculus; assay: Anti-asthmatic activity against ovalbumin-induced asthmatic mouse model assessed as decrease in IL-5 level in BALF at 2.6 mg/kg, po administered once daily for 7 days by ELISA; format: functional, organism-based; settings: time 7.0 day
[6] = test system: Mus musculus; assay: Increase in beta2 adrenoceptor expression in bronchus in ovalbumin-induced asthmatic mouse model at 2.6 mg/kg, po administered once daily for 7 days by Western blot analysis; format: functional, organism-based; settings: time 7.0 day
[7] = target: T1, Beta-2 adrenergic receptor (Homo sapiens, UniProt P07550); assay: Binding affinity to immobilized Halo tag-fused beta2 adrenoceptor (unknown origin) expressed in Escherichia coli BL21 (DE3) assessed as retention time by chromatography
Target sequence in this assay (P07550 whole entry, looked up, the tested form may be a part): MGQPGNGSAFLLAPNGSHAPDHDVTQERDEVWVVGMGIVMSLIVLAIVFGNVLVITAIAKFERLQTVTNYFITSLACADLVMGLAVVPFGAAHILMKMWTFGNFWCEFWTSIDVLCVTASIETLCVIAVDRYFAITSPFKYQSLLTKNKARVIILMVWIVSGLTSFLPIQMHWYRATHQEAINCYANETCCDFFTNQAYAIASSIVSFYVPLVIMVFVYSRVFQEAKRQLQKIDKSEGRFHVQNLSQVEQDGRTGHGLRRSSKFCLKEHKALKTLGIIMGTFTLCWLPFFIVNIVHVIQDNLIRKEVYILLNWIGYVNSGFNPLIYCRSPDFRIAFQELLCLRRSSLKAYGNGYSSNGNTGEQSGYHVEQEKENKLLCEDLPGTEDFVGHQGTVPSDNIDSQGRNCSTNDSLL

[8] = target: T2, Uracil nucleotide/cysteinyl leukotriene receptor (Homo sapiens, UniProt Q13304); assay: Binding affinity to immobilized Halo tag-fused CysLT receptor (unknown origin) expressed in Escherichia coli BL21 (DE3) assessed as dissociation rate constant by receptor chromatography
[9] = target: T2, Uracil nucleotide/cysteinyl leukotriene receptor
Description: Binding affinity to immobilized Halo tag-fused CysLT receptor (unknown origin) expressed in Escherichia coli BL21 (DE3) assessed as retention time by chromatography

[10] = target: T2, Uracil nucleotide/cysteinyl leukotriene receptor; remark: listed apart in the source
Description: Binding affinity to immobilized Halo tag-fused CysLT receptor (unknown origin) expressed in Escherichia coli BL21 (DE3) assessed as association rate constant by receptor chromatography

[11] = test system: Mus musculus; assay: Anti-asthmatic activity against ovalbumin-induced asthmatic mouse model assessed as decrease in IgE level in serum administered orally once daily for 7 days by ELISA; format: functional, organism-based; settings: dose 10-20 mg/kg, route po, time 7.0 day, DDE = dose-dependent effect
[12] = test system: Mus musculus; assay: Anti-asthmatic activity against ovalbumin-induced asthmatic mouse model assessed as decrease in IL-13 level in BALF administered orally once daily for 7 days by ELISA; format: functional, organism-based; settings: dose 10-20 mg/kg, route po, time 7.0 day, DDE = dose-dependent effect
[13] = test system: Mus musculus; assay: Anti-asthmatic activity against ovalbumin-induced asthmatic mouse model assessed as infiltration of inflammatory cells in the perivascular and peribronchiolar region of lungs at 10 to 20 mg/kg, po administered once daily for 7 days by H and E staining based light microscopic analysis; format: functional, organism-based; settings: dose 10-20 mg/kg, time 7.0 day
[14] = test system: Mus musculus; assay: Anti-asthmatic activity against ovalbumin-induced asthmatic mouse model assessed as decrease in IL-4 level in BALF administered orally once daily for 7 days by ELISA; format: functional, organism-based; settings: dose 10-20 mg/kg, route po, time 7.0 day, DDE = dose-dependent effect
[15] = test system: Mus musculus; assay: Increase in beta2 adrenoceptor expression in bronchus in ovalbumin-induced asthmatic mouse model administered orally once daily for 7 days by Western blot analysis; format: functional; settings: dose 10-20 mg/kg, route po, time 7.0 day, DDE = dose-dependent effect
[16] = test system: Mus musculus; assay: Decrease in CysLT receptor expression in bronchus in ovalbumin-induced asthmatic mouse model administered orally once daily for 7 days by Western blot analysis; format: functional; settings: dose 10-20 mg/kg, route po, time 7.0 day, DDE = dose-dependent effect
[17] = target: T1, Beta-2 adrenergic receptor; assay: Binding affinity to immobilized Halo tag-fused beta2 adrenoceptor (unknown origin) expressed in Escherichia coli BL21 (DE3) by receptor chromatography
Target sequence in this assay (P07550 whole entry, looked up, the tested form may be a part): as above

[18] = target: T1, Beta-2 adrenergic receptor; assay: Binding affinity to immobilized Halo tag-fused beta2 adrenoceptor (unknown origin) expressed in Escherichia coli BL21 (DE3) assessed as dissociation rate constant by receptor chromatography
Target sequence in this assay (P07550 whole entry, the tested form may be a part): as the sequence (P07550 whole entry, looked up, the tested form may be a part) above

[19] = target: T1, Beta-2 adrenergic receptor; assay: Binding affinity to immobilized Halo tag-fused beta2 adrenoceptor (unknown origin) expressed in Escherichia coli BL21 (DE3) assessed as association rate constant by receptor chromatography
Target sequence in this assay (P07550 whole entry, looked up, the tested form may be a part): as above

T2 sequence (Q13304 whole entry, the tested form may be a part): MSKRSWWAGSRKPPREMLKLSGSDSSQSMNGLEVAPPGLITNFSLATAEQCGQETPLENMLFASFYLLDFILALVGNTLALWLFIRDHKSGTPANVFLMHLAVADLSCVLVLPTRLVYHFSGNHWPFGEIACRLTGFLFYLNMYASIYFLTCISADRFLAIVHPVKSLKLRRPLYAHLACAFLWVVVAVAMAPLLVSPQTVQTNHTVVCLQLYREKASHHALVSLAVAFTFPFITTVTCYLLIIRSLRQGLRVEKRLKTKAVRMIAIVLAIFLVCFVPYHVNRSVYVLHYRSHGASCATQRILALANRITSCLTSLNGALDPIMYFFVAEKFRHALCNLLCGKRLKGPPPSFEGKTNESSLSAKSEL

Row | Compound | Retention time [7] [min] | Kd [8] [s⁻¹] | Retention time [9] [min] | Ka [10] | K [17] | Kd [18] [s⁻¹] | Ka [19] | other results
1 | CC1(C)[C@@H](O)CC[C@]2(C)[C@H]3C(=O)C=C4[C@@H]5C[C@@](C)(C(=O)O)CC[C@]5(C)CC[C@@]4(C)[C@]3(C)CC[C@@H]12 |  |  |  |  |  |  |  | Activity [1]: Active
2 | CN(C)C(=O)Oc1cc(OC(=O)N(C)C)cc(C(O)CNC(C)(C)C)c1 (stereo unspecified) | 4.1 |  |  |  |  |  |  | Activity [2]: Active; Activity [3]: Active; Activity [4]: Active; Activity [5]: Active; Activity [6]: Active
3 | CC(C)(O)c1ccccc1CC[C@@H](SCC1(CC(=O)[O-])CC1)c1cccc(/C=C/c2ccc3ccc(Cl)cc3n2)c1.[Na+] [MONTELUKAST SODIUM] |  | 12.6 | 8.7 | 5.18 10^5/M/s |  |  |  | 
4 | CC1(C)[C@@H](O)CC[C@]2(C)[C@H]3C(=O)C=C4[C@@H]5C[C@@](C)(C(=O)NCCc6ccc(O)cc6)CC[C@]5(C)CC[C@@]4(C)[C@]3(C)CC[C@@H]12 |  | 17.2 |  | 4.85 10^5/M/s | 6.57 10^4/M | 7.52 | 4.94 10^5/M/s | Activity [11]: Dde; Activity [12]: Dde; Activity [13]: Active; Activity [14]: Dde; Activity [15]: Dde; inhibition [16]: Dde
5 | CC(c1cc2ccccc2s1)N(O)C(N)=O (stereo unspecified) |  |  | 3.5 |  |  |  |  | 
6 | CNC(C)Cc1ccccc1OC (stereo unspecified) [METHOXYPHENAMINE] | 3.6 |  |  |  | 0.5 10^4/M | 0.98 | 1.93 10^5/M/s | 
